According to paper PMC9065678, “BI 1015550 is a PDE4B Inhibitor and a Clinical Drug Candidate for the Oral Treatment of Idiopathic Pulmonary Fibrosis” (Frontiers in Pharmacology, 2022):
Marks after values point to notes of the source that are not given here.

Tests used:
[1] = target: T1, PDE5 (Homo sapiens, UniProt O76074); assay: PDE5 inhibition screen at Eurofins Cerep; format: biochemical; settings: screened at Eurofins Cerep
T1 construct: Eurofins Cerep

[2] = test system: Col3A1 mRNA expression; assay: TGF-β-induced Col3A1 mRNA expression in IPF lung fibroblasts (Taqman); format: cell-based, human
Protocol: Fibroblasts from donors with IPF (IPF-LF) (Asterand, Detroit, MI, United States) were grown in fibroblast basal medium (CC-3131, Lonza Walkersville, Inc., Walkersville, MD, United States) supplemented with FGM-2 SingleQuot Kit Supplements and Growth Factors (CC-4126, Lonza). Cells were grown in a humidified incubator at 37°C and 5% CO2. All assays were performed at passage 7 or 8. For assay set-up, cells were seeded in fibroblast growth medium plus supplements in assay-relevant densities. For TGF-β-stimulated assays, cells were seeded at 4,500 cells per well in 96-well plates. Proliferation assays were performed in 96-well plates at an initial seeding cell density on day 0 of 2,000 cells per well. After 24-h, the cell culture medium was changed to starvation medium (fibroblast basal medium without supplements). […]
For determination of Col1A1, Col3A1, and FN mRNA expression, IPF-LF cells were stimulated with TGF-β (4 ng/mL) for 48 h. […] Quantitative real-time polymerase chain reactions were set up using the TaqMan™ Fast Advanced Master Mix (Applied Biosystems, Carlsbad, CA, United States) and species-specific gene expression assays: Col1A1 #Hs00164004_m1 FAM, Col3A1 #Hs0094309_m1 FAM, FN #Hs01549976_m1 FAM, 18S #4310893E. […] Fold-change of gene expression was calculated by the Viia7 software (regulation based upon housekeeper).

[3] = test system: silica-induced lung fibrosis; assay: Silica-induced lung inflammation and fibrosis in the mouse; format: in vivo; settings: mice
Protocol: BI 1015550 was given at doses of 0.25, 0.75, and 2.5 mg/kg b.i.d. in Natrosol 0.5% (10 mL/kg) starting from day 10 after silica instillation until day 30 (therapeutic regimen). 8-week-old BL6 mice (mixed sex, Janvier Labs, Le Genest-Saint-Isle, France) were used. Details of the experimental methods are described elsewhere ([Lo Re et al., 2010]). Briefly, mice received silica particles at 2.5 mg/mouse by intranasal instillation. Control mice received the respective saline solution by intranasal instillation. Mice were killed 30 days after silica administration and macroscopic changes were recorded at post-mortem analysis. Lung weight was measured, BALF for total cell and differential cell counts as well as myeloperoxidase (MPO) activity and keratinocyte-derived cytokine (KC, the counterpart of human GRO protein) determination was generated, and lung histology (staining with HE and chromotrope-aniline blue with semi-quantitative analysis for the estimation of inflammation, granuloma, and fibrosis scores was done.

[4] = target: T2, PDE4D (Homo sapiens, UniProt Q08499); assay: Recombinant PDE activity, scintillation proximity assay: PDE4D; format: biochemical; settings: human recombinant active site fragment, substrate [3H]cAMP, means from n independent experiments; read-out: IC50 PDE4D2
T2 construct: PDE4D NG_027957, AA 79–438; made in house; host or cells: SF9 insect cells (baculovirus, Bac-To-Bac, pFastbac)
T2 sequence (Q08499 381-740): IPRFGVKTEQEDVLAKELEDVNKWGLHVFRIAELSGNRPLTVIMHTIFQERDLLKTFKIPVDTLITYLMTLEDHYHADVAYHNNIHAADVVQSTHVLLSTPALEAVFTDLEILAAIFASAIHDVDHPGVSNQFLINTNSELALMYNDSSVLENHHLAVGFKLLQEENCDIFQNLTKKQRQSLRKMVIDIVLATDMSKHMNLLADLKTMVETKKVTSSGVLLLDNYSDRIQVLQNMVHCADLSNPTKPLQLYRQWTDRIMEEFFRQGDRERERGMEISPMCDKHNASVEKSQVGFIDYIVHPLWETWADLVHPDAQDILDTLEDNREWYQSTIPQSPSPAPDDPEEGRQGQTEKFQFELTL
Protocol: For the preparation of human recombinant PDEs of interest, the Bac-To-Bac baculoviral expression system from Invitrogen (Carlsbad, CA, United States) was used according to the instruction manual. […] The plasmids were transformed into DH10Bac bacteria, SF9 insect cells were transfected with the bacmid DNA, and the resulting baculoviruses were stored and used for further rounds of infections. For protein production, SF9 cells were infected until a cytopathic effect was visible (after about 72 h), the SF9 cells were harvested and broken up by 3 freeze/thaw cycles, and by shearing 10 times through a 0.1 mm cannula using a syringe. […] The Phosphodiesterase Scintillation Proximity Assays (TRKQ7090 for [^3H]cAMP, GE Healthcare Europe GmbH, Chalfont St Giles, United Kingdom, and TRKQ7100 for [^3H]cGMP, Perkin Elmer, Waltham, MA, United States) were performed essentially according to the instruction manual. […] Assay solutions containing recombinant baculoviral-expressed PDE (to give an activity of 5.000–20.000 cpm corresponding to 5–20% of total activity added), 50 mmol/L Tris/HCl pH 7.5, 8.3 mmol/L MgCl2, 1.7 mmol/L EGTA, and 10 µL radiolabeled substrate (0.05 µCi in H2O) were incubated for 1 h at 30°C (final volume 100 μL).

[5] = 0.25 mg/kg b.i.d. oral day 10–30
[6] = 0.75 mg/kg b.i.d. oral day 10–30
[7] = 2.5 mg/kg b.i.d. oral day 10–30

[O-][S+]1CCc2nc(N3CCC(c4ncc(Cl)cn4)CC3)nc(NC3(CO)CCC3)c21 (stereo not shown) [BI 1015550] was tested, and the “Inhibition of human PDE5” value [1] was “did not inhibit”, the IC50 ([2]; IPF-LF, TGF-β 4 ng/mL, 48 h, read-out: IC50 TGF-β-induced Col3 mRNA expression) was 0.213 µM and the “Combination effect in inhibiting Col3 mRNA expression” value ([2]; combination with nintedanib at 100 nmol/L) was “additive effects”. For the same compound, the “Fibrosis score, % change related to control animals” value (“Fibrosis score, % change related” for short) [3, 5] was 5%, the “Granuloma score, % change related to control animals” value (shortened to “Granuloma score, % change related”) [3, 5] was “–16%” and the “Inflammation score, % change related to control animals” value (“Inflammation score, % change related” for short) [3, 5] was “–4%”. For the same compound, the “KC in BALF, % change related to control animals” value (shortened to “KC in BALF, % change related”) [3, 5] was 4%, the “Lung weight, % change related to control animals” value (“Lung weight, % change related” below) [3, 5] was “–57%” and the “Lymphocytes in BALF, % change related to control animals” value (shortened to “Lymphocytes in BALF, % change related”) [3, 5] was “–18%”. The “MPO in BALF, % change related to control animals” value (“MPO in BALF, % change related” for short) [3, 5] was “–2%”, the “Macrophages in BALF, % change related to control animals” value (“Macrophages in BALF, % change related” below) [3, 5] was “–29%” and the “Neutrophils in BALF, % change related to control animals” value (shortened to “Neutrophils in BALF, % change related”) [3, 5] was “–35%”. The “Total cells in BALF, % change related to control animals” value (“Total cells in BALF, % change related” for short) [3, 5] was “–27%”, the “Fibrosis score, % change related” value [3, 6] was “–10%” and the “Granuloma score, % change related” value [3, 6] was “–11%”. For the same compound, the “Inflammation score, % change related” value [3, 6] was 4%, the “KC in BALF, % change related” value [3, 6] was “–39%” and the “Lung weight, % change related” value [3, 6] was “–46%”. For the same compound, the “Lymphocytes in BALF, % change related” value [3, 6] was 49%, the “MPO in BALF, % change related” value [3, 6] was “–22%” and the “Macrophages in BALF, % change related” value [3, 6] was “–11%”. For the same compound, the “Neutrophils in BALF, % change related” value [3, 6] was 8%, the “Total cells in BALF, % change related” value [3, 6] was “–13%” and the “Fibrosis score, % change related” value [3, 7] was “–15%”. For the same compound, the “Granuloma score, % change related” value [3, 7] was “–32%”, the “Inflammation score, % change related” value [3, 7] was “–19%” and the “KC in BALF, % change related” value [3, 7] was “–27%”. For the same compound, the “Lung weight, % change related” value [3, 7] was “–46%”, the “Lymphocytes in BALF, % change related” value [3, 7] was “–12%” and the “MPO in BALF, % change related” value [3, 7] was “–34%”. For the same compound, the “Macrophages in BALF, % change related” value [3, 7] was “–38* %”, the “Neutrophils in BALF, % change related” value [3, 7] was “–46* %” and the “Total cells in BALF, % change related” value [3, 7] was “–28%”. For the same compound, the IC50 [4] was 0.091 µM.
